# Test results from publication PMC8531552, “Full-Length Galectin-3 Is Required for High Affinity Microbial Interactions and Antimicrobial Activity” (Frontiers in Microbiology, 2021).
# Legend:
# P. alcalifaciens O5 [1] = assay: Flow cytometry analysis of galectin binding to intact bacteria; set-up: species or system Providentia alcalifaciens O5
# Experimental: (§1) To examine potential binding by each galectin, bacteria were resuspended and washed twice in PBS at 4°C and then incubated with 0.1μM Alexa Fluor™ 488 labeled Gal-3 or Gal-3C at 4°C for 20min. In some experiments, Gal-3 or Gal-3C were co-incubated with 20mM thiodigalactoside (TDG) for 10min before incubation with the bacteria as a control. After incubation, cells were washed twice and resuspended them in 400μl PBS for flow cytometry analysis using FACSCanto II flow cytometer (BD Biosciences). The data were processed with FlowJo version 10.
# K. pneumoniae O1 [2] = assay: as above; set-up: species or system Klebsiella pneumoniae O1
# Experimental: as §1
# P. alcalifaciens O21 [3] = assay: as above; set-up: species or system Providentia alcalifaciens O21; details: 0.1μM Alexa Fluor 488 labeled galectin, 4°C, 20min
# Experimental: as §1
# K. pneumoniae O1 [4] = assay: Bacteria viability by CFU enumeration; type: cell-based, Klebsiella pneumoniae O1; details: 37°C, 2h
# Experimental: (§2) When assaying potential antimicrobial effects of Gal-3 and Gal-3C, each strain was assessed in the mid-logarithmic growth phase (OD600 of ~0.1) and grown in LB media as outlined previously ([Arthur et al., 2015b]). Bacterial cells were incubated with the concentrations of each galectin indicated in the figure legends (0.04–10μM) at 37°C for 2h with shaking at 250rpm. Bacteria were then pipetted and plated on LB agar plate to determine the number of viable bacteria by CFU enumeration.
# P. alcalifaciens O21 [5] = assay: Bacteria viability by CFU enumeration; type: cell-based, Providentia alcalifaciens O21; details: 0.04–10μM, 37°C, 2h
# Experimental: as §2
# K. pneumoniae O4 = assay: Bacteria viability by CFU enumeration; type: cell-based, Klebsiella pneumoniae O4; details: 0.04–10μM, 37°C, 2h
# Experimental: as §2
# P. alcalifaciens O5 [6] = assay: Bacteria viability by CFU enumeration; type: cell-based, Providentia alcalifaciens O5; details: 37°C, 2h
# Experimental: as §2
# [7] = target: T1, human Gal-3C (C-terminal domain of Gal-3) (Homo sapiens, UniProt P17931); assay: CFG glycan microarray binding of Alexa Fluor 488 labeled Gal-3C
# T1 construct: made in house; host or cells: E. coli BL21 (DE3)
# T1 sequence (P17931 118-248 limits assumed): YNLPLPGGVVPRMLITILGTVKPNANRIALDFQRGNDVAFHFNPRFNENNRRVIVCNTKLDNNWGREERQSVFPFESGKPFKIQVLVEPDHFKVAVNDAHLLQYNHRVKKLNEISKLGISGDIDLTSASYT
# Experimental: (§3) Galectins were labeled with Alexa Fluor™ 488 NHS Ester (succinimidyl ester) by incubating 2mg/ml galectin with 1mg Alexa Fluor™ 488 for 1h at room temperature and avoid from light as outlined previously ([Stowell et al., 2004]). […] While 2-ME is not required for Gal-3 activity, this approach was used to provide a consistent protocol for all galectin purification. […] Finally, labeled galectin was applied to CFG glycan microarray (CFG) and MGM prepared as described previously ([Blixt et al., 2004]; [Stowell et al., 2008a], [2014]; [Song et al., 2009]; [Wu et al., 2021a]). […] The slide was dried by microcentrifugation, and an image of bound fluorescence was obtained using a microarray scanner (GenePix 4000 B, Molecular devices). […] For non-saturated positive glycan interactions, the relative fluorescence units were plotted as a percent of the maximal binding at the highest concentration examined.
# (§4) In order to compare the relative binding affinities of Gal-3 and Gal-3C toward blood group antigens and other glycan structures present on the array, we calculated the relative KD generated from binding isotherm data for each galectin toward various blood group antigens, polylactosamine (polyLacNAc), and other common structural modifications previously shown to influence galectin recognition (e.g., α2-6 sialylation).
# human Gal-3 = target: T2, human Gal-3 (Homo sapiens, UniProt P17931); assay: CFG glycan microarray binding of Alexa Fluor 488 labeled Gal-3
# T2 construct: made in house; host or cells: E. coli BL21 (DE3)
# T2 sequence (P17931 whole entry): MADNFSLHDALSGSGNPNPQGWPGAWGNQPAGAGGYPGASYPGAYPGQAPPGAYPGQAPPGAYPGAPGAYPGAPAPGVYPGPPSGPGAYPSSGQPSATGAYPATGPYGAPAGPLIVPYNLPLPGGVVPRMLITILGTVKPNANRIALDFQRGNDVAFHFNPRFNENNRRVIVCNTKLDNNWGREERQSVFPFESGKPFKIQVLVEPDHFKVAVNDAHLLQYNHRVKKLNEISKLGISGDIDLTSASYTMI
# Experimental: as §3, §4
# [8] = 20mM TDG co-incubated with galectin
# [9] = 0.1μM Alexa Fluor 488 labeled galectin, 4°C, 20min
compound,measurement,setting,value
"OC[C@H]1O[C@@H](S[C@@H]2O[C@H](CO)[C@H](O)[C@H](O)[C@H]2O)[C@H](O)[C@@H](O)[C@H]1O [TDG, thiodigalactoside, reference compound]",effect on Gal-3 and Gal-3C engagement of P. alcalifaciens O5,P. alcalifaciens O5 [1]; [8],inhibited recognition
same,effect on Gal-3 and Gal-3C binding to K. pneumoniae O1,K. pneumoniae O1 [2]; [8],prevented binding
"Gal-3: recombinant human galectin-3, full-length chimeric galectin expressed in E. coli",binding to P. alcalifaciens O21,P. alcalifaciens O21 [3],failed to result in any detectable binding
same,impact on viability of K. pneumoniae O1,K. pneumoniae O1 [4]; 0.04–10μM,loss of microbial viability was noted at higher concentrations
same,EC50,"K. pneumoniae O1 [4]; CFU enumeration, read-out: EC50 toward K. pneumoniae O1 viability",750 nM
same,binding to P. alcalifaciens O5,P. alcalifaciens O5 [1]; [9],Clear interactions
same,binding to K. pneumoniae O1,K. pneumoniae O1 [2]; [9],bound K. pneumoniae O1
same,impact on viability of P. alcalifaciens O21,P. alcalifaciens O21 [5],failed to result in any detectable impact on microbial viability
same,impact on viability of K. pneumoniae O4,K. pneumoniae O4,failed to impact the viability
same,impact on viability of P. alcalifaciens O5,P. alcalifaciens O5 [6]; 0.04–10μM,reduced viability
same,EC50,"P. alcalifaciens O5 [6]; CFU enumeration, read-out: effective concentration 50 (EC50), viability of P. alcalifaciens O5",~170 nM
blood group B,Gal-3C concentration required for similar absolute binding as Gal-3 at […],[7]; CFG array,3.3 µM
same,Gal-3C binding on CFG array,"[7]; binding isotherms, Fig 2",high affinity interactions
same,Gal-3 concentration at which recognition was observed,"human Gal-3; CFG array, virtually no binding at or below 0.12μM",0.36 µM
same,Gal-3 binding on CFG array,"human Gal-3; binding isotherms, Fig 2 and 3",high affinity interactions
